Active and inactive are the calls of the source.
Assays:
[1] = Lipophilicity, logK of the compound by RP-HPLC analysis; format: physicochemical
[2] = test system: Mycobacterium tuberculosis; assay: Antimycobacterial activity against Mycobacterium tuberculosis H37Rv CNCTC My 331/88 incubated for 10 to 14 days by microplate alamar blue assay; format: functional
[3] = test system: Mycobacterium kansasii; assay: Antimycobacterial activity against Mycobacterium kansasii CNCTC My 235/80 incubated for 5 to 7 days by microplate alamar blue assay; format: functional
[4] = Cytotoxicity against CRFK cells assessed as cell viability after 4 to 6 days by formazan-based MTS assay; parameters: species or system Felis catus; conditions: cat
[5] = Cytotoxicity against HEL cells assessed as cell viability after 4 to 6 days by microscopic analysis; format: cell-based; conditions: human
[6] = Cytotoxicity against human HeLa cells assessed as cell viability after 4 to 6 days by microscopic analysis; format: cell-based
[7] = Cytotoxicity against African green monkey Vero cells assessed as cell viability after 4 to 6 days by microscopic analysis; format: cell-based; conditions: chlorocebus sabaeus
[8] = Cytotoxicity against MDCK cells assessed as cell viability after 4 to 6 days by formazan-based MTS assay; parameters: species or system Canis lupus familiaris; conditions: dog
[9] = Cytotoxicity against MDCK cells assessed as cell viability after 4 to 6 days by microscopic analysis; format: cell-based, Canis lupus familiaris; conditions: dog
[10] = test system: Influenza A virus; assay: Antiviral activity against Influenza A virus (A/Puerto Rico/8/(H1N1)) assessed as inhibition of virus-induced cytopathic effect after 3 to 6 days by formazan-based MTS assay; format: functional, organism-based
[11] = test system: Mycobacterium avium; assay: Antimycobacterial activity against Mycobacterium avium CNCTC My 80/72 after 5 days by microplate alamar blue assay; format: functional; conditions: CNCTC My 80/72, 120 h
[12] = test system: Mycobacterium avium; assay: Antimycobacterial activity against Mycobacterium avium CNCTC My 152/73 after 5 days by microplate alamar blue assay; format: functional; conditions: CNCTC My 152/73, 120 h
[13] = test system: Escherichia coli; assay: Antibacterial activity against Escherichia coli CCM 4517 after 24 to 48 hrs by broth microdilution method; format: functional
[14] = test system: Pseudomonas aeruginosa; assay: Antibacterial activity against Pseudomonas aeruginosa CCM 1961 after 24 to 48 hrs by broth microdilution method; format: functional
[15] = test system: Klebsiella pneumoniae; assay: Antibacterial activity against Klebsiella pneumoniae D 11750/08 after 24 to 48 hrs by broth microdilution method; format: functional
[16] = test system: Klebsiella pneumoniae; assay: Antibacterial activity against ESBL positive Klebsiella pneumoniae J 14368/08 after 24 to 48 hrs by broth microdilution method; format: functional
[17] = test system: Candida albicans; assay: Antifungal activity against Candida albicans ATCC 44859 after 24 to 48 hrs by broth microdilution method; format: functional
[18] = test system: Candida tropicalis; assay: Antifungal activity against Candida tropicalis 156 after 24 to 48 hrs by broth microdilution method; format: functional
[19] = test system: Pichia kudriavzevii; assay: Antifungal activity against Candida krusei E28 after 24 to 48 hrs by broth microdilution method; format: functional
[20] = test system: Nakaseomyces glabratus; assay: Antifungal activity against Candida glabrata 20/I after 24 to 48 hrs by broth microdilution method; format: functional
[21] = test system: Trichosporon asahii; assay: Antifungal activity against Trichosporon asahii 1188 after 24 to 48 hrs by broth microdilution method; format: functional
[22] = test system: Aspergillus fumigatus; assay: Antifungal activity against Aspergillus fumigatus 231 after 24 to 48 hrs by broth microdilution method; format: functional
[23] = test system: Lichtheimia corymbifera; assay: Antifungal activity against Lichtheimia corymbifera 272 after 24 to 48 hrs by broth microdilution method; format: functional
[24] = test system: Trichophyton mentagrophytes; assay: Antifungal activity against Trichophyton mentagrophytes 445 after 72 to 120 hrs by broth microdilution method; format: functional
[25] = test system: Influenza A virus; assay: Antiviral activity against Influenza A virus (A/Puerto Rico/8/(H1N1)) assessed as inhibition of virus-induced cytopathic effect after 3 to 6 days by microscopic analysis; format: functional, organism-based
[26] = test system: Staphylococcus aureus; assay: Antibacterial activity against methicillin-resistant Staphylococcus aureus H 5996/08 after 24 to 48 hrs by broth microdilution method; format: functional, organism-based

CCCCCCCNc1nccnc1C(=O)NCc1ccccc1
> 100 µM: CC50 [4] | MCC [6] | MCC [7] | CC50 [8] | EC50 [10] | EC50 [25]
> 500 µM: MIC95 [13] | MIC95 [14] | MIC95 [15] | MIC95 [16] | MIC [17] | MIC [18] | MIC [19] | MIC [20] | MIC [21] | MIC [22] | MIC [23] | MIC [24]
> 100 mg/L: MIC [2] | MIC [3] | MIC [11] | MIC [12]
1.809: log K [1]
100 µM: MCC [5] | MCC [9]

CCCCNc1cncc(C(=O)NCc2ccccc2)n1
> 100 µM: CC50 [4] | MCC [5] | MCC [6] | EC50 [10] | EC50 [25]
> 100 mg/L: MIC [11] | MIC [12]
66 µM: CC50 [8]
0.549: log K [1]
> 500 µM: MIC95 [13] | MIC95 [14] | MIC95 [15] | MIC95 [16] | MIC [17] | MIC [18] | MIC [19] | MIC [20] | MIC [21] | MIC [22] | MIC [23] | MIC [24]
inactive: Activity [26]
176 µM: MIC [3]
44 µM: MIC [2]
100 µM: MCC [7] | MCC [9]

CCCCCCCCNc1nccnc1C(=O)NCc1ccccc1
> 100 mg/L: MIC [2] | MIC [3] | MIC [11] | MIC [12]
2.054: log K [1]
> 100 µM: CC50 [4] | MCC [5] | MCC [6] | MCC [7] | CC50 [8] | EC50 [10] | EC50 [25]
100 µM: MCC [9]
> 500 µM: MIC95 [13] | MIC95 [14] | MIC95 [15] | MIC95 [16] | MIC [17] | MIC [18] | MIC [19] | MIC [20] | MIC [21] | MIC [22] | MIC [23] | MIC [24]

CCCCNc1nccnc1C(=O)NCc1ccccc1
> 500 µM: MIC95 [13] | MIC95 [14] | MIC95 [15] | MIC95 [16] | MIC [17] | MIC [18] | MIC [19] | MIC [20] | MIC [21] | MIC [22] | MIC [23] | MIC [24]
1.081: log K [1]
> 100 µM: CC50 [4] | MCC [5] | MCC [6] | MCC [7] | CC50 [8] | MCC [9] | EC50 [10] | EC50 [25]
> 100 mg/L: MIC [2] | MIC [3] | MIC [11] | MIC [12]

O=C(NCc1ccccc1)c1nccnc1Cl
50 µM: MIC [2]
100 mg/L: MIC [3]
> 100 mg/L: MIC [11] | MIC [12]

CCCCNc1cnc(C(=O)NCc2ccccc2)cn1
> 100 mg/L: MIC [3] | MIC [11] | MIC [12]
88 µM: MIC [2]
> 100 µM: CC50 [4] | MCC [5] | MCC [6] | MCC [7] | EC50 [10] | EC50 [25]
100 µM: MCC [9]
> 500 µM: MIC95 [13] | MIC95 [14] | MIC95 [15] | MIC95 [16] | MIC [17] | MIC [18] | MIC [19] | MIC [20] | MIC [21] | MIC [22] | MIC [23] | MIC [24]
0.424: log K [1]
57 µM: CC50 [8]

O=C(NCc1ccccc1)c1nccnc1NCc1ccccc1
1.04: log K [1]
20 µM: MCC [9]
> 100 µM: CC50 [4] | MCC [5] | MCC [6] | MCC [7] | CC50 [8] | EC50 [10] | EC50 [25]
> 100 mg/L: MIC [2] | MIC [3] | MIC [11] | MIC [12]

NC(=O)c1cnccn1 [PYRAZINAMIDE]
-0.687: log K [1]
102 µM: MIC [2]
> 100 mg/L: MIC [3]
